Source: PMC9847679, “The anti-breast cancer stem cell properties of gold(I)-non-steroidal anti-inflammatory drug complexes” (Chemical Science, 2022)

Columns and labels:
[1] = test system: murine 4T1 triple-negative breast cancer model; test: Antitumour efficacy in murine 4T1 triple-negative breast cancer model; format: in vivo, BALB/c mice
Protocol: Mice. Female, 5-week-old BALB/c mice were purchased from Charles River Laboratories (Wilmington, MA). All mice were quarantined for one week before use and kept in micro - isolator cages (four mice per cage) in a temperature - and humidity-controlled environment a s per the Division of Laboratory Animal Research (DLAR) of University of Kentucky. All mice were maintained in a pathogen-free environment under the care of DLAR of University of Kentucky. Our study was performed in compliance with the NIH guidelines (NIH Publication No. 85-23 Rev. 1985) for the care and use of laboratory animals and all experimental procedures were monitored and approved by the Institutional Animal Care and Use Committee (IACUC) of University of Kentucky (USA).
In vivo studies with 1. Ten female BALB/c mice (5 weeks) were received from Charles River Laboratories (Wilmington, MA). […]
being implanted with 4T1 cells (1 million) subcutaneously on their right flank. Three days post-implantation, the mice were administered with 10 mg/kg of 1 intraperitoneally (IP), 0.1 mL/mouse formulated as 1% DMSO, 10% Kolliphor, and 89% PBS. The control group was injected with a PBS solution containing 1% DMSO and […]. The injection of 1, and […]
tumour-size and body-weight measurements were performed three days a week, and the mice were euthanised after 16 days (n = 5 for 1 and n = 5 for vehicle control). […]
Hematoxylin and eosin staining. The mice used in the in vivo comparative experiment of 1 and the vehicle control were sacrificed at day 16 post tumo ur cells (4T1) injection. The tissues (liver, kidney, and tumour) were fixed in freshly prepared paraformaldehyde (4% in PBS) for 24 h and processed for paraffin sectioning. Tissue sections of 5 µm were stained with hematoxylin and eosin and used for histological examination. A total of 3 sections per tissue (spanning the full depth of the tissue) were examined and photographed using a Nikon

HMLER-shEcad cells = test: Mammosphere formation assay; format: cell-based, human; details: at IC20 value, single cell suspensions, 5 days incubation
Protocol: media. The final concentration of DMSO in each well was ≤1 %. After 72 h, 20 μl of MTT (4 mg mL-1 in PBS) was added to each well and the plates incubated for an additional 4 h at 37 °C. The media/MTT mixture was eliminated and DMSO (100 μl per well) was added to dissolve the formazan precipitates. The optical density was measured at 550 nm using a 96-well multiscanner autoreader. Absorbance values were normalised to (DMSO-containing) control wells and plotted as concentration of test compound versus % cell viability. IC50 values were interpolated from the resulting dose dependent curves. The reported IC50 values are the average of three independent experiments (n = 18).
Tumorsphere Formation and Viability Assay. […] Mammospheres treated with 1-3, 5-fluorouracil, capecitabine, cisplatin, carboplatin, and salinomycin (at their respective IC20 values, 5 days) were counted and imaged using an inverted microscope. The viability of the mammospheres was determined by addition of a resazurin-based reagent, TOX8 (Sigma). After incubation for 16 h, the fluorescence of the solutions was read at 590 nm (λex = 560 nm). […] Fluorescence values were normalised to DMSO-containing controls and plotted as concentration of test compound versus % mammospheres viability. […]
Cellular Uptake. […] The number of cells was counted at this stage, using a haemocytometer. […] Gold levels are expressed as mass of Au (ng) per million cells. […]

[2] = 10 mg kg−1 intraperitoneally three times a week, 16 days, vs vehicle
[3] = day 16, compared to control group

COc1ccc2c(c1)c(CC(=O)[O][Au][PH](c1ccccc1)(c1ccccc1)c1ccccc1)c(C)n2C(=O)c1ccc(Cl)cc1 [complex 1]
body weight [1, 2]: maintained their body weight | tumour growth [1, 2]: significant tumour growth inhibition | cellularity in kidney or liver tissue (H&E histology) [1, 3]: no alteration to cellularity | cellularity in tumour tissue (H&E histology) [1, 3]: Reduced cellularity | number and size of mammospheres formed (HMLER-shEcad cells): greatest inhibitory effect
